The values that follow come from patent US20230233640A1, “ANTIVIRAL PREPARATION FROM CHESTNUT SHELLS OF CASTANEA SATIVA MILL” (Micronature S.R.L., priority 2019, published 2023).

Data set [1] can be described thus: Cytotoxicity in VERO cells. The note with it: reference marked * (µM). The format is cell-based. An excerpt: (§1) Cytotoxicity assays were run in parallel with antiviral assays.
A short description of data set [2]: Cytotoxicity in MT-4 cells (MTT). The format is cell-based. The note with it: human.
Description: (§2) Cell lines were purchased from American Type Culture Collection (ATCC). The absence of mycoplasma contamination was checked periodically by the Hoechst staining method. Cell lines supporting the multiplication of RNA viruses were the following: CD4+ human T-cells containing an integrated HTLV-1 genome (MT-4); Madin Darby Bovine Kidney (MDBK) [ATCC CCL 22 (NBL-1) Bos Taurus]; Baby Hamster Kidney (BHK-21) [ATCC CCL 10 (C-13) Mesocricetus auratus], Vero cells (CCL-81; American Type Culture Collection, Manassas, VA, USA)
as §1
Exponentially growing MT-4 cells were seeded at an initial density of 1 × 10^5 cells/ml in 96-well plates in RPMI-1640 medium, supplemented with 10% fetal bovine serum (FBS), 100 units/mL penicillin G and 100 µg/mL streptomycin. Cell cultures were then incubated at 37° C. in a humidified, 5% CO2 atmosphere, in the absence or presence of serial dilutions of test compounds. Cell viability was determined after 96 hrs at 37° C. by the 3-(4,5-dimethylthiazol-2-yl)-2,5-diphenyl-tetrazolium bromide (MTT) method (Pauwels et al. 1988).

A further data set relates to BVDV. Format: cell-based, bovine viral diarrhoea virus (BVDV) strain NADL. The note with it: reference marked * (µM); 50% protection of MDBK cells; read-out: In vitro efficacy EC50 BVDV.
For another data set, the system named is MDBK cells. In words: Cytotoxicity in MDBK cells (MTT). Format: cell-based, Bos Taurus. The note with it: reference marked * (µM).
Description: as §2, §1
MDBK cells were seeded in 96-well plates at an initial density of 6 × 10^5 and 1 × 10^6 cells/mL, respectively, in Minimum Essential Medium with Earle’s salts (MEM-E), L-glutamine, 1 mM sodium pyruvate and 25 mg/L kanamycin, supplemented with 10% horse serum (MDBK). Cell cultures were then incubated at 37° C. in a humidified, 5% CO2 atmosphere in the absence or presence of serial dilutions of test compounds. Cell viability was determined after 72 hrs at 37° C. by the MTT method. […] Vero cells (1 × 10^6) were plated in 6-well multiwells and incubated the next day with the substance at the same concentrations used in the antiviral assays. […]

Like-named read-outs stand apart in the source and are kept apart here.

Regarding Enfuvirtide, the “In vitro efficacy EC50 HIV-1” value in the data set on HIV-1 is recorded as 0.017 µg/mL.

`CC[C@H](C)[C@H](NC(=O)[C@H](C)NC(=O)[C@H](CCC(=O)O)NC(=O)[C@H](CCC(=O)O)NC(=O)[C@H](CC(C)C)NC(=O)[C@H](CCCCN)NC(=O)[C@H](CCCCN)NC(=O)[C@H](CCSC)NC(=O)[C@H](CCC(=O)O)NC(=O)[C@H](Cc1ccc(O)cc1)NC(=O)[C@H](CCC(=O)O)NC(=O)[C@H](CC(C)C)NC(=O)[C@H](CC(=O)O)NC(=O)[C@H](CC(C)C)NC(=O)[C@H](Cc1ccccc1)NC(=O)[C@@H](NC(=O)[C@@H](NC(=O)[C@H](CC(N)=O)NC(=O)[C@@H](NC(=O)[C@H](CCC(N)=O)NC(=O)[C@H](CC(=O)O)NC(=O)[C@H](CC(C)C)NC(=O)[C@@H](N)CO)[C@@H](C)CC)C(C)C)[C@@H](C)O)C(=O)N[C@@H](CCCCN)C(=O)N[C@@H](CCCCN)C(=O)N[C@@H](CC(C)C)C(=O)N[C@@H](CCC(=O)O)C(=O)N[C@@H](CCC(=O)O)C(=O)N[C@@H](CO)C(=O)N[C@@H](Cc1ccc(O)cc1)C(=O)N[C@H](C(=O)N[C@@H](CC(=O)O)C(=O)N[C@@H](CC(C)C)C(=O)N[C@@H](CCCCN)C(=O)N[C@@H](CCC(=O)O)C(=O)N[C@@H](CC(C)C)C(=O)O)[C@@H](C)CC` [EK1]: the CC50 in data set [1] was more than 100 µM. In the data set with SARS-CoV-2, this molecule showed an EC50 of 5.4 µM.

As for `O=C1Nc2ccc(Cl)cc2[C@@](C#CC2CC2)(C(F)(F)F)O1` [EFV, Efavirenz], the CC50 at 96 h in data set [2] came out at 40 µM.

In the case of enfuvirtide, the half-maximal cytotoxic concentration (CC50) at 96 h in data set [2] (mock-infected MT-4 cells, viability reduced by 50%, MTT method, read-out: Cytotoxicity in MT-4 cells CC50) is more than 100 µg/mL.

In the case of `C[C@@]1(O)[C@H](O)[C@@H](CO)O[C@H]1n1cnc2c(=O)[nH]c(N)nc21` [NM 108], in the data set with BVDV, the EC50 was 1.6 µM. The molecule further registered a half-maximal cytotoxic concentration (CC50) in the data set on MDBK cells of more than 100 µM.
